Among the data in patent US20250179032A1, “HETEROCYCLIC INHIBITORS OF GLUT9 FOR TREATMENT OF DISEASE” (HORIZON THERAPEUTICS IRELAND DAC, priority 2022, published 2025) are IC50 values, retold here.

Molecules are shown by their SMILES. pIC50: −log10 of the molar value. Bounds are passed on as bounds.

For this experiment, the target named is T1, H. sapiens SLC2A9 variant 2 (GLUT9B) (Homo sapiens, UniProt Q9NRM0).
T1 sequence (Q9NRM0 1-511 isoform Q9NRM0-2): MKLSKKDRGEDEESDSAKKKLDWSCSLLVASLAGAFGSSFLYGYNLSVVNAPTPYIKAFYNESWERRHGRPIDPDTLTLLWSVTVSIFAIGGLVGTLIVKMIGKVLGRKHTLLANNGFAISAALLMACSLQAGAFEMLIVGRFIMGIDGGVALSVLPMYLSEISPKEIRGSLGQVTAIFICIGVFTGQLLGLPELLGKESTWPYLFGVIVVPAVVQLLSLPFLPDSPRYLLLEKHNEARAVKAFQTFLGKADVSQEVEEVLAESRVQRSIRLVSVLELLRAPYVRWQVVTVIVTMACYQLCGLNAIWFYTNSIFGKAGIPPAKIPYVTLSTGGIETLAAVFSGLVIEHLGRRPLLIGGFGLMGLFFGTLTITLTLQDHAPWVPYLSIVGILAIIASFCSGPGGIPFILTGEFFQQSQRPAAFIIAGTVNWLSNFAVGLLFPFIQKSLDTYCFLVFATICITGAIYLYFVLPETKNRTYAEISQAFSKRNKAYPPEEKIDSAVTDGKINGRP
The experiment in a line: GLUT9 functional assay: uric acid uptake in HEK293T cells, allantoin formation by MS/MS as proxy of GLUT9B inhibition. In kind it is cell-based. As to conditions: 15 minute assay; HEK293T cells stably expressing GLUT9B and transiently A. oryzae uricase; uric acid 0.3 mM, 37° C.; read-out: 15 min IC50. The procedure:
Uric acid stocks (9 mM, Millipore-Sigma, U0881) were generated in 125 mM choline chloride (Millipore-Sigma, C7017) and the concentration was determined at 293 nm using a molar extinction coefficient of 9600 M- ^1 cm- ^1) after collecting the absorbance spectra from 220-350 nm. Allantoin stocks (12 mM Toronto Research Chemicals, A540500) were generated in LCMS grade water (Thermo Scientific, 51140). The concentration of allantoin was determined by qNMR (Michigan State University). HEK293T cells were purchased from ATCC (HEK 293T/17 SF). Hanks buffered saline salts (HBSS) was purchased from Millipore-Sigma (H6648-1L).
SLC2A9 variant 2 was assayed in sodium gluconate buffer was composed of 125 mM sodium gluconate (TCI Chemicals, G0041-500G), 4.8 mM potassium gluconate (TCI Chemicals, G0040-500G), 1.2 mM calcium gluconate (TCI Chemicals, G0037-500G), 1.2 mM potassium phosphate (pH 7.4, Millipore-Sigma, 17835), 1.2 mM MgSO4, Millipore-Sigma, M2773-500G), 25 mM HEPES pH 7.3, (Millipore-Sigma, 54457). The final pH of the buffer was 7.4. Urate 1 was assayed in the same buffer save the pH was made to be 5.5 using 25 mM MES (pH 5.5) buffer vs 25 mM HEPES (pH 7.3) buffer.
Human untagged clone for (untagged)-human solute carrier family 2 member 9 (SLC2A9), transcript variant (SLC2A9/NM_001001290, FIG. 1 and FIG. 2; SEQ ID NOS: 3 and 4) was purchased from Origene (Cat #SC319239). SLC2A9 variant 2 (GLUT9B) gene was amplified by PCR using the following primer to allow for the introduction of EcoR1 and Not1 sites using the primers below.
HEK293T clonal stable cell lines containing the SLC2A9 variant 2 construct in the bicistronic pIRESpuro vector were generated using Viafect™ (Promega E4981) as per the manufactures instructions and puromycin selection (5 μg×mL^−1).
Uric acid uptake was measured in HEK293T cells stably expressing H. sapiens SLC2A9 variant 2 (GLUT9B) and transiently expressing A. oryzae uricase. Thus, decreased allantoin formation was used as a proxy of GLUT9B inhibition. Briefly, clonal cells were plated (53,000 cells/cm^2) in DMEM with 10% FBS. Twenty-four hours later, A. oryzae uricase was transfected, and assay conducted 3 days later across a 12-point curve in buffer (in mM: 125 sodium gluconate, 4.8 potassium gluconate, 1.2 calcium gluconate, 1.2 potassium phosphate, 1.2 magnesium sulfate4, 25 HEPES; pH 7.4) with uric acid at the GLUT9B Km (0.3 mM) for 15 min or for 60 min, at 37° C. Following wash (Hanks, 37° C.), plates were sealed, incubated (5 min, RT) and cells freeze-thawed prior to lysing in water and shaking (30 min RT). Lysates were filtered through PVDF and subjected to MSMS using a 10 mM ammonium acetate-based mobile phase on a porous graphitic carbon column. Allantoin was detected in positive ion mode. Desired analyte concentrations were quantitated by integrating the area under the curve followed by a log-logistic regression model and data compared to a standard curve prepared in a matching HEK293T biological matrix.
Mass spectrometry measurement of allantoin was completed using an Agilent RapidFire 300 coupled to a Sciex API 4000 mass spectrometer. The stationary phase was an Agilent cartridge D (hypercarb). Mobile phase A was 10 mM ammonium acetate. Mobile phase B was 5 mM ammonium acetate, 25% acetonitrile, 25% acetone. Allantoin was detected in positive ion mode with the following compound ID settings: Q1 159, Q3 115.8, DP 57, CE 12.5 Dwell 100 ms. The source settings were CAD 10, CUR 20, GS1 50, GS250 IS/NC: 5000, TEM 650, EP 10, CXP 10 where Q1 and Q3 resolution were set to low.
Data was quantitated using Area under the curve integration was performed with the RapidFire™ Integrator (Agilent Technologies) for the desired analytes. Quantitation was completed using in a using a log-logistic regression model using allantoin in matching HEK293T biological matrix.
For `CCCCc1cnc(-c2ccc(OCCOC)cc2)c(N2CCC(C(=O)O)CC2)n1` [Compound 13, 1-(6-Butyl-3-(4-(2-Methoxyethoxy)Phenyl)Pyrazin-2-yl)Piperidine-4-carboxylic acid], the pIC50 was over 6.30.

Take `CCCCc1cnc(-c2ccc(OC)cc2)c(N2CCC(C)(C(=O)O)CC2)n1` [Compound 14, 1-(6-Butyl-3-(4-Methoxyphenyl)Pyrazin-2-yl)-4-Methylpiperidine-4-carboxylic acid]: the pIC50 is over 6.30.

`CCCCc1cnc(-c2ccc(OC)cc2)c(N2CCC(CC(=O)O)CC2)n1` [Compound 15, 2-(1-(6-Butyl-3-(4-Methoxyphenyl)Pyrazin-2-yl)Piperidin-4-yl)Acetic acid]: the pIC50 was over 6.30.

For the compound `CCCCc1cnc(-c2ccc(OC)cc2)c(N2CCC(c3nn[nH]n3)CC2)n1` [Compound 16, 3-(4-(2H-Tetrazol-5-yl)Piperidin-1-yl)-5-Butyl-2-(4-methoxyphenyl)pyrazine], the pIC50 was over 6.30.

Consider `CCCCc1cnc(-c2ccc3cc[nH]c3c2)c(N2CCC(C(=O)O)CC2)n1` [Compound 17, 1-(6-Butyl-3-(1H-Indol-6-yl)Pyrazin-2-yl)Piperidine-4-Carboxylic Acid], for which the pIC50 is 5.70 to 6.30.

Consider `CCCCc1cnc(-c2ccc(OC)cc2)c(-c2ccc(C(=O)O)nc2)c1` [Compound 18, 5′-butyl-2′-(4-methoxyphenyl)-[3,3′-bipyridine]-6-carboxylic acid], for which the pIC50 was under 5.70.

Regarding `CCCCc1cnc(-c2ccc(OC)cc2)c(-c2csc(C(=O)O)c2)c1` [Compound 19, 4-(5-butyl-2-(4-methoxyphenyl)pyridin-3-yl)thiophene-2-carboxylic acid], the pIC50 is 5.70 to 6.30.

Take `CCCCc1cnc(-c2ccc(OC)cc2)c(-c2csc(C(=O)O)n2)c1` [Compound 20, 4-(5-butyl-2-(4-methoxyphenyl)pyridin-3-yl)thiazole-2-carboxylic acid]: the negative-log IC50 (pIC50) was under 5.70.

On to `CCCCc1cnc(-c2ccc(OC)cc2)c(-c2c[nH]c(C(=O)O)c2)c1` [Compound 21, 4-(5-butyl-2-(4-methoxyphenyl)pyridin-3-yl)-1H-pyrrole-2-carboxylic acid], for which the pIC50 is under 5.70.

Consider `CCCCc1cnc(-c2ccc(OC)cc2)c(-c2coc(C(=O)O)c2)c1` [Compound 22, 4-(5-butyl-2-(4-methoxyphenyl)pyridin-3-yl)furan-2-carboxylic acid], for which the pIC50 is under 5.70.

For `CCCCc1cnc(-c2ccc(OC)cc2)c(-c2cnc(C(=O)O)nc2)c1` [Compound 23, 5-(5-butyl-2-(4-methoxyphenyl)pyridin-3-yl)pyrimidine-2-carboxylic acid], the pIC50 is under 5.70.

Take `CCCCc1cnc(-c2ccc(OC)cc2)c(-c2ccc(C(=O)O)cn2)c1` [Compound 24, 5′-butyl-2′-(4-methoxyphenyl)-[2,3′-bipyridine]-5-carboxylic acid]: the pIC50 is under 5.70.

On to `CCCCc1cnc(-c2ccc(OC)cc2)c(-c2ncc(C(=O)O)s2)c1` [Compound 25, 2-(5-butyl-2-(4-methoxyphenyl)pyridin-3-yl)thiazole-5-carboxylic acid], for which the pIC50 is under 5.70.

As for `CCCCc1cnc(-c2ccc(OC)cc2)c(-c2cc(=O)[nH][nH]2)c1` [Compound 26, 5-(5-butyl-2-(4-methoxyphenyl)pyridin-3-yl)-1,2-dihydro-3H-pyrazol-3-one], the pIC50 is under 5.70.

Take `CCCCc1cnc(-c2ccc(OC)cc2)c(-c2ccc3c(c2)CNC3=O)c1` [Compound 27, 5-(5-butyl-2-(4-methoxyphenyl)pyridin-3-yl)isoindolin-1-one]: the pIC50 is 5.70 to 6.30.

`CCCCc1nc(-c2ccc(OC)cc2)c(N2CCC(C(=O)O)CC2)o1` [Compound 28, 1-(2-butyl-4-(4-methoxyphenyl)oxazol-5-yl)piperidine-4-carboxylic acid]: the negative-log IC50 (pIC50) was 5.70 to 6.30.

For the compound `CCCCc1cnc(-c2ccc(OC)cc2)c(-c2cn(CC(=O)O)nn2)c1` [Compound 29, 2-(4-(5-butyl-2-(4-methoxyphenyl)pyridin-3-yl)-1H-1,2,3-triazol-1-yl)acetic acid], the pIC50 was over 6.30.

As to `COc1ccc(-c2ncc(CCC(F)(F)C(F)(F)F)nc2N2CCC(C(=O)O)CC2)cc1` [Compound 30, 1-(3-(4-methoxyphenyl)-6-(3,3,4,4,4-pentafluorobutyl)pyrazin-2-yl)piperidine-4-carboxylic acid], the pIC50 is over 6.30.

As for `COc1ccc(-c2ncc(CCCC(F)(F)F)nc2N2CCC(C(=O)O)CC2)cc1` [Compound 31, 1-(3-(4-methoxyphenyl)-6-(4,4,4-trifluorobutyl)pyrazin-2-yl)piperidine-4-carboxylic acid], the pIC50 was over 6.30.

As to `COc1ccc(-c2ncc(COCC(F)(F)F)nc2N2CCC(C(=O)O)CC2)cc1` [Compound 32, 1-(3-(4-methoxyphenyl)-6-((2,2,2-trifluoroethoxy)methyl)pyrazin-2-yl)piperidine-4-carboxylic acid], the pIC50 is under 5.70.

In the case of `COCCOc1ccc(-c2ncc(COCC(F)(F)F)nc2N2CCC(C(=O)O)CC2)cc1` [Compound 33, 1-(3-(4-(2-methoxyethoxy)phenyl)-6-((2,2,2-trifluoroethoxy)methyl)pyrazin-2-yl)piperidine-4-carboxylic acid], the pIC50 is 5.70 to 6.30.

Take `COCCOc1ccc(-c2ncc(CCCC(F)(F)F)nc2N2CCC(C(=O)O)CC2)cc1` [Compound 34, 1-(3-(4-(2-methoxyethoxy)phenyl)-6-(4,4,4-trifluorobutyl)pyrazin-2-yl)piperidine-4-carboxylic acid]: the pIC50 is 5.70 to 6.30.

Consider `CCCCc1cnc(-c2ccc(OC)cc2)c(-c2ccc3c(c2)COC3=O)n1` [Compound 35, 5-(6-butyl-3-(4-methoxyphenyl)pyrazin-2-yl)isobenzofuran-1(3H)-one], for which the pIC50 is 5.70 to 6.30.

For the compound `CCCCc1cnc(-c2ccc(OC)cc2)c(N2CC3(CC(C(=O)O)C3)C2)n1` [Compound 36, 2-(6-butyl-3-(4-methoxyphenyl)pyrazin-2-yl)-2-azaspiro[3.3]heptane-6-carboxylic acid], the pIC50 was 5.70 to 6.30.

Turning to `CCCCc1cnc(-c2ccc(OCCOC)c(F)c2)c(N2CCC(C(=O)O)CC2)n1` [Compound 37, 1-(6-butyl-3-(3-fluoro-4-(2-methoxyethoxy)phenyl)pyrazin-2-yl)piperidine-4-carboxylic acid], the pIC50 is over 6.30.

`CCCCc1cnc(-c2cc(F)c(OCCOC)c(F)c2)c(N2CCC(C(=O)O)CC2)n1` [Compound 38, 1-(6-butyl-3-(3,5-difluoro-4-(2-methoxyethoxy)phenyl)pyrazin-2-yl)piperidine-4-carboxylic acid]: the pIC50 is 5.70 to 6.30.
